Reference: PubChem BioAssay AID248 (DTP/NCI, 2004)
Where “and” joins values, the source holds several entries; their conditions need not be identical. Identical values can stand only once. Inconclusive results and toxic doses are left out. Cut-off read from the data, not from the text of the source: active = T/C of 150% or more; inactive = T/C below 125%.

System: L1210 leukemia ip in BDF1 mice, survival T/C
Experiment: NCI In Vivo Anticancer Drug Screen. Data for tumor model L1210 Leukemia (intraperitoneal) in B6D2F1 (BDF1) mice
Conditions: higher = longer survival
How it was run: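 Value reflects the ratio of survival in compound-treated mice to survival in vehicle-treated controls, with both groups carrying the same transplanted tumor.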

Measured: T/C

COc1cccc2c1C(=O)c1c(O)c3c(c(O)c1C2=O)C[C@@](O)(C(C)=O)C[C@@H]3OC1CC(N)C(O)C(C)O1 (stereo partly drawn)
inactive: endpoint: mean survival time, dose: 0.05 mg/kg/injection, schedule: Q01DX009 (ip), vehicle: saline 105 % of control | endpoint: mean survival time, dose: 0.1 mg/kg/injection, schedule: Q01DX015 (ip), vehicle: water 104 % of control | endpoint: mean survival time, dose: 0.1 mg/kg/injection, schedule: Q02DX008 (ip), vehicle: water 97 % of control | endpoint: mean survival time, dose: 0.14 mg/kg/injection, schedule: Q04DX002 (ip), vehicle: saline 104 % of control and 105 % of control | endpoint: mean survival time, dose: 0.14 mg/kg/injection, schedule: Q## X004 (ip), vehicle: water 103 % of control | endpoint: mean survival time, dose: 0.15 mg/kg/injection, schedule: Q02DX008 (ip), vehicle: water 106 % of control | endpoint: mean survival time, dose: 0.25 mg/kg/injection, schedule: Q04DX003 (ip), vehicle: water 104 % of control | endpoint: mean survival time, dose: 0.27 mg/kg/injection, schedule: Q04DX002 (ip), vehicle: saline 94 % of control | endpoint: mean survival time, dose: 0.54 mg/kg/injection, schedule: Q04DX002 (ip), vehicle: saline 100 % of control | endpoint: mean survival time, dose: 1.0 mg/kg/injection, schedule: Q03HX024 (ip), vehicle: water 103 % of control | endpoint: mean survival time, dose: 1.0 mg/kg/injection, schedule: Q04DX005 (ip), vehicle: saline 105 % of control | endpoint: mean survival time, dose: 1.3 mg/kg/injection, schedule: Q02DX005 (ip), vehicle: saline 97 % of control | endpoint: mean survival time, dose: 1.8 mg/kg/injection, schedule: Q## X032 (ip), vehicle: water 95 % of control | endpoint: mean survival time, dose: 2.0 mg/kg/injection, schedule: Q02DX005 (ip), vehicle: saline 102 % of control | endpoint: mean survival time, dose: 2.0 mg/kg/injection, schedule: Q02DX009 (ip), vehicle: saline 102 % of control | endpoint: mean survival time, dose: 2.0 mg/kg/injection, schedule: Q03HX024 (ip), vehicle: water 100 % of control | endpoint: mean survival time, dose: 2.7 mg/kg/injection, schedule: Q## X032 (ip), vehicle: water 100 % of control | endpoint: mean survival time, dose: 3.33 mg/kg/injection, schedule: Q01DX Z (ip), vehicle: saline 105 % of control | endpoint: mean survival time, dose: 3.95 mg/kg/injection, schedule: Q01DX Z (oral), vehicle: saline 101 % of control | endpoint: mean survival time, dose: 4.0 mg/kg/injection, schedule: Q01DX003 (ip), vehicle: saline 103 % of control | endpoint: mean survival time, dose: 4.0 mg/kg/injection, schedule: Q01DX005 (ip), vehicle: saline 102 % of control | endpoint: mean survival time, dose: 4.0 mg/kg/injection, schedule: Q01DX010 (ip), vehicle: saline 92 % of control and 103 % of control | endpoint: mean survival time, dose: 4.0 mg/kg/injection, schedule: Q01DX014 (ip), vehicle: saline 100 % of control | endpoint: mean survival time, dose: 4.0 mg/kg/injection, schedule: Q04DX005 (ip), vehicle: saline 106 % of control | endpoint: mean survival time, dose: 4.0 mg/kg/injection, schedule: Q06HX004 (ip), vehicle: water 102 % of control | endpoint: mean survival time, dose: 4.0 mg/kg/injection, schedule: Q## X Z (ip), vehicle: water 104 % of control | endpoint: mean survival time, dose: 5.0 mg/kg/injection, schedule: Q01DX009 (oral), vehicle: saline 104 % of control | endpoint: mean survival time, dose: 5.0 mg/kg/injection, schedule: Q01DX Z (ip), vehicle: saline 95 % of control | endpoint: mean survival time, dose: 5.92 mg/kg/injection, schedule: Q01DX Z (oral), vehicle: saline 106 % of control | endpoint: mean survival time, dose: 6.0 mg/kg/injection, schedule: Q01DX014 (ip), vehicle: saline 105 % of control | endpoint: mean survival time, dose: 6.25 mg/kg/injection, schedule: Q01DX009 (ip), vehicle: saline 95 % of control | endpoint: mean survival time, dose: 8.0 mg/kg/injection, schedule: Q01DX001 (ip), vehicle: water 98 % of control | endpoint: mean survival time, dose: 8.0 mg/kg/injection, schedule: Q01DX015 (ip), vehicle: saline 103 % of control | endpoint: mean survival time, dose: 8.88 mg/kg/injection, schedule: Q01DX001 (ip), vehicle: saline 105 % of control | endpoint: mean survival time, dose: 8.88 mg/kg/injection, schedule: Q01DX Z (oral), vehicle: saline 100 % of control | endpoint: mean survival time, dose: 9.0 mg/kg/injection, schedule: Q## X032 (ip), vehicle: water 104 % of control | endpoint: mean survival time, dose: 10.0 mg/kg/injection, schedule: Q04DX003 (ip), vehicle: water 104 % of control | endpoint: mean survival time, dose: 12.0 mg/kg/injection, schedule: Q02DX008 (ip), vehicle: saline 102 % of control | endpoint: mean survival time, dose: 12.5 mg/kg/injection, schedule: Q01DX001 (oral), vehicle: water 103 % of control | endpoint: mean survival time, dose: 13.0 mg/kg/injection, schedule: Q## X004 (ip), vehicle: saline 96 % of control | endpoint: mean survival time, dose: 13.3 mg/kg/injection, schedule: Q01DX001 (ip), vehicle: saline 94 % of control and 95 % of control | endpoint: mean survival time, dose: 13.3 mg/kg/injection, schedule: Q01DX Z (oral), vehicle: saline 98 % of control | endpoint: mean survival time, dose: 13.33 mg/kg/injection, schedule: Q#B X Z (oral), vehicle: water 103 % of control | endpoint: mean survival time, dose: 20.0 mg/kg/injection, schedule: Q01DX001 (ip), vehicle: water 95 % of control | endpoint: mean survival time, dose: 20.0 mg/kg/injection, schedule: Q01DX Z (oral), vehicle: saline 106 % of control | endpoint: mean survival time, dose: 25.0 mg/kg/injection, schedule: Q01DX001 (oral), vehicle: water 94 % of control | endpoint: mean survival time, dose: 25.0 mg/kg/injection, schedule: Q04DX002 (ip), vehicle: saline 97 % of control | endpoint: mean survival time, dose: 30.0 mg/kg/injection, schedule: Q01DX001 (ip), vehicle: saline 95 % of control | endpoint: mean survival time, dose: 30.0 mg/kg/injection, schedule: Q01DX Z (oral), vehicle: saline 102 % of control | endpoint: mean survival time, dose: 45.0 mg/kg/injection, schedule: Q01DX Z (oral), vehicle: saline 102 % of control | endpoint: mean survival time, dose: 50.0 mg/kg/injection, schedule: Q01DX001 (oral), vehicle: water 97 % of control | endpoint: mean survival time, dose: 80.0 mg/kg/injection, schedule: Q01DX010 (oral), vehicle: saline 103 % of control | endpoint: mean survival time, dose: 80.0 mg/kg/injection, schedule: Q07DX Z (oral), vehicle: water 97 % of control | endpoint: mean survival time, dose: 100.0 mg/kg/injection, schedule: Q01DX001 (oral), vehicle: water 100 % of control | endpoint: mean survival time, dose: 160.0 mg/kg/injection, schedule: Q07DX Z (oral), vehicle: water 101 % of control | endpoint: median survival time, dose: 0.05 mg/kg/injection, schedule: Q01DX001 (ip), vehicle: saline 100 % of control | endpoint: median survival time, dose: 0.2 mg/kg/injection, schedule: Q01DX001 (ip), vehicle: saline 94 % of control and 100 % of control | endpoint: median survival time, dose: 0.28 mg/kg/injection, schedule: Q03HX008 (ip), vehicle: water 105 % of control | endpoint: median survival time, dose: 0.8 mg/kg/injection, schedule: Q01DX001 (ip), vehicle: saline 100 % of control | endpoint: median survival time, dose: 1.75 mg/kg/injection, schedule: Q04DX003 (ip), vehicle: water 94 % of control | endpoint: median survival time, dose: 1.8 mg/kg/injection, schedule: Q01DX005 (ip), vehicle: water 105 % of control | endpoint: median survival time, dose: 2.0 mg/kg/injection, schedule: Q01DX001 (iv), vehicle: water 99 % of control | endpoint: median survival time, dose: 2.0 mg/kg/injection, schedule: Q01DX005 (ip), vehicle: other 106 % of control | endpoint: median survival time, dose: 2.0 mg/kg/injection, schedule: Q03HX008 (ip), vehicle: water 94 % of control | endpoint: median survival time, dose: 2.6 mg/kg/injection, schedule: Q04DX003 (ip), vehicle: water 105 % of control | endpoint: median survival time, dose: 3.0 mg/kg/injection, schedule: Q01DX005 (ip), vehicle: water 100 % of control | endpoint: median survival time, dose: 3.0 mg/kg/injection, schedule: Q04DX003 (sc), vehicle: water 99 % of control and 100 % of control | endpoint: median survival time, dose: 3.9 mg/kg/injection, schedule: Q01DX001 (ip), vehicle: water 100 % of control | endpoint: median survival time, dose: 3.9 mg/kg/injection, schedule: Q04DX003 (ip), vehicle: water 100 % of control | endpoint: median survival time, dose: 4.0 mg/kg/injection, schedule: Q01DX001 (ip), vehicle: saline 106 % of control | endpoint: median survival time, dose: 4.0 mg/kg/injection, schedule: Q01DX001 (iv), vehicle: water 102 % of control | endpoint: median survival time, dose: 5.0 mg/kg/injection, schedule: Q01DX017 (ip), vehicle: water 105 % of control | endpoint: median survival time, dose: 5.0 mg/kg/injection, schedule: Q04DX003 (ip), vehicle: Klucel (hydroxypropylcellulose) (HPC) 105 % of control | endpoint: median survival time, dose: 5.9 mg/kg/injection, schedule: Q01DX001 (ip), vehicle: water 105 % of control | endpoint: median survival time, dose: 5.9 mg/kg/injection, schedule: Q04DX003 (ip), vehicle: water 100 % of control | endpoint: median survival time, dose: 8.0 mg/kg/injection, schedule: Q01DX001 (iv), vehicle: water 102 % of control | endpoint: median survival time, dose: 8.3 mg/kg/injection, schedule: Q04DX003 (ip), vehicle: Klucel (hydroxypropylcellulose) (HPC) 94 % of control and 97 % of control | endpoint: median survival time, dose: 8.9 mg/kg/injection, schedule: Q01DX001 (ip), vehicle: water 94 % of control | endpoint: median survival time, dose: 10.0 mg/kg/injection, schedule: Q01DX001 (ip), vehicle: water 97 % of control and 100 % of control | endpoint: median survival time, dose: 10.0 mg/kg/injection, schedule: Q04DX003 (ip), vehicle: water 100 % of control | endpoint: median survival time, dose: 13.3 mg/kg/injection, schedule: Q01DX001 (ip), vehicle: water 100 % of control | endpoint: median survival time, dose: 25.0 mg/kg/injection, schedule: Q04DX003 (sc), vehicle: water 100 % of control and 102 % of control | endpoint: median survival time, dose: 39.0 mg/kg/injection, schedule: Q04DX003 (sc), vehicle: water 99 % of control and 100 % of control
